Measurements from ChEMBL document CHEMBL1151757, “Synthesis, radiosynthesis, and biological evaluation of fluorine-18-labeled 2beta-carbo(fluoroalkoxy)-3beta-(3'-((Z)-2-haloethenyl)phenyl)nortropanes: candidate radioligands for in vivo imaging of the serotonin transporter with positron emission tomography” (J Med Chem, 2008).

Assays:
[1] = Ratio of drug uptake in pons to cerebellum in anesthetized cynomolgus monkey after 85 mins postinjection; assay type: ADME, organism-based, Macaca fascicularis; conditions: in vivo
[2] = Ratio of drug uptake in pons to cerebellum in anesthetized cynomolgus monkey after 95 mins postinjection; assay type: ADME, organism-based, Macaca fascicularis; conditions: in vivo
[3] = Ratio of drug uptake in medulla to cerebellum in anesthetized cynomolgus monkey after 18.5 mins postinjection; assay type: ADME, organism-based, Macaca fascicularis; conditions: in vivo
[4] = Ratio of drug uptake in medulla to cerebellum in anesthetized cynomolgus monkey after 155 mins postinjection; assay type: ADME, organism-based, Macaca fascicularis; conditions: in vivo
[5] = Drug uptake in anesthetized cynomolgus monkey brain occipital lobe after 2.5 mins postinjection; assay type: ADME, organism-based, Macaca fascicularis; conditions: in vivo
[6] = Drug uptake in anesthetized cynomolgus monkey brain occipital lobe after 6.5 mins postinjection; assay type: ADME, organism-based, Macaca fascicularis; parameters: unit not given here; conditions: in vivo
[7] = Drug uptake in anesthetized cynomolgus monkey brain occipital lobe after 22.5 mins postinjection; assay type: ADME, organism-based, Macaca fascicularis; conditions: in vivo, 0.375 h
[8] = Drug uptake in anesthetized cynomolgus monkey brain occipital lobe after 55 mins postinjection; assay type: ADME, organism-based, Macaca fascicularis; conditions: in vivo
[9] = Drug uptake in anesthetized cynomolgus monkey brain occipital lobe after 165 mins postinjection; assay type: ADME, organism-based, Macaca fascicularis; conditions: in vivo, 2.75 h
[10] = Drug uptake in anesthetized cynomolgus monkey brain occipital lobe after 215 mins postinjection; assay type: ADME, organism-based, Macaca fascicularis; conditions: in vivo
[11] = Drug uptake in anesthetized cynomolgus monkey brain frontal lobe after 0.5 mins postinjection; assay type: ADME, organism-based, Macaca fascicularis; conditions: in vivo
[12] = Drug uptake in anesthetized cynomolgus monkey brain frontal lobe after 35 mins postinjection; assay type: ADME, organism-based, Macaca fascicularis; conditions: in vivo
[13] = Drug uptake in anesthetized cynomolgus monkey brain frontal lobe after 55 mins postinjection; assay type: ADME, organism-based, Macaca fascicularis; conditions: in vivo
[14] = Drug uptake in anesthetized cynomolgus monkey brain frontal lobe after 155 mins postinjection; assay type: ADME, organism-based, Macaca fascicularis; conditions: in vivo
[15] = Drug uptake in anesthetized cynomolgus monkey brain frontal lobe after 175 mins postinjection; assay type: ADME, organism-based, Macaca fascicularis; conditions: in vivo
[16] = Ratio of drug uptake in pons to cerebellum in anesthetized cynomolgus monkey after 6.5 mins postinjection; assay type: ADME, organism-based, Macaca fascicularis; conditions: in vivo
[17] = Ratio of drug uptake in occipital lobe to cerebellum in anesthetized cynomolgus monkey after 95 mins postinjection; assay type: ADME, organism-based, Macaca fascicularis; conditions: in vivo
[18] = Ratio of drug uptake in occipital lobe to cerebellum in anesthetized cynomolgus monkey after 105 mins postinjection; assay type: ADME, organism-based, Macaca fascicularis; conditions: in vivo, 1.75 h
Putamen [19] = assay: Drug uptake in anesthetized cynomolgus monkey brain putamen after 165 mins postinjection; assay type: ADME, organism-based, Macaca fascicularis; conditions: in vivo, 2.75 h
[20] = Ratio of drug uptake in occipital lobe to cerebellum in anesthetized cynomolgus monkey after 185 mins postinjection; assay type: ADME, organism-based, Macaca fascicularis; conditions: in vivo
[21] = Ratio of drug uptake in frontal lobe to cerebellum in anesthetized cynomolgus monkey after 35 mins postinjection; assay type: ADME, organism-based, Macaca fascicularis; conditions: in vivo
[22] = Ratio of drug uptake in frontal lobe to cerebellum in anesthetized cynomolgus monkey after 135 mins postinjection; assay type: ADME, organism-based, Macaca fascicularis; conditions: in vivo, 2.25 h
Midbrain [23] = assay: Drug uptake in anesthetized cynomolgus monkey brain midbrain after 135 mins postinjection; assay type: ADME, organism-based, Macaca fascicularis; conditions: in vivo, 2.25 h
Midbrain [24] = assay: Drug uptake in anesthetized cynomolgus monkey brain midbrain after 155 mins postinjection; assay type: ADME, organism-based, Macaca fascicularis; conditions: in vivo
Pons [25] = assay: Drug uptake in anesthetized cynomolgus monkey brain pons after 4.5 mins postinjection; assay type: ADME, organism-based, Macaca fascicularis; conditions: in vivo, 0.075 h
Pons [26] = assay: Drug uptake in anesthetized cynomolgus monkey brain pons after 12.5 mins postinjection; assay type: ADME, organism-based, Macaca fascicularis; conditions: in vivo
Pons [27] = assay: Drug uptake in anesthetized cynomolgus monkey brain pons after 22.5 mins postinjection; assay type: ADME, organism-based, Macaca fascicularis; conditions: in vivo, 0.375 h
Pons [28] = assay: Drug uptake in anesthetized cynomolgus monkey brain pons after 55 mins postinjection; assay type: ADME, organism-based, Macaca fascicularis; conditions: in vivo
Pons [29] = assay: Drug uptake in anesthetized cynomolgus monkey brain pons after 95 mins postinjection; assay type: ADME, organism-based, Macaca fascicularis; conditions: in vivo
Midbrain [30] = assay: Drug uptake in anesthetized cynomolgus monkey brain midbrain after 185 mins postinjection; assay type: ADME, organism-based, Macaca fascicularis; conditions: in vivo
Midbrain [31] = assay: Drug uptake in anesthetized cynomolgus monkey brain midbrain after 195 mins postinjection; assay type: ADME, organism-based, Macaca fascicularis; conditions: in vivo, 3.25 h
[32] = Ratio of drug uptake in caudate to cerebellum in anesthetized cynomolgus monkey after 9.5 mins postinjection; assay type: ADME, organism-based, Macaca fascicularis; conditions: in vivo
[33] = Ratio of drug uptake in caudate to cerebellum in anesthetized cynomolgus monkey after 12.5 mins postinjection; assay type: ADME, organism-based, Macaca fascicularis; conditions: in vivo
[34] = Ratio of drug uptake in caudate to cerebellum in anesthetized cynomolgus monkey after 18.5 mins postinjection; assay type: ADME, organism-based, Macaca fascicularis; conditions: in vivo
[35] = Ratio of drug uptake in caudate to cerebellum in anesthetized cynomolgus monkey after 95 mins postinjection; assay type: ADME, organism-based, Macaca fascicularis; conditions: in vivo
Pons [36] = assay: Drug uptake in anesthetized cynomolgus monkey brain pons after 155 mins postinjection; assay type: ADME, organism-based, Macaca fascicularis; conditions: in vivo
Pons [37] = assay: Drug uptake in anesthetized cynomolgus monkey brain pons after 165 mins postinjection; assay type: ADME, organism-based, Macaca fascicularis; conditions: in vivo, 2.75 h
Medulla [38] = assay: Drug uptake in anesthetized cynomolgus monkey brain medulla after 0.5 mins postinjection; assay type: ADME, organism-based, Macaca fascicularis; conditions: in vivo
Medulla [39] = assay: Drug uptake in anesthetized cynomolgus monkey brain medulla after 12.5 mins postinjection; assay type: ADME, organism-based, Macaca fascicularis; conditions: in vivo
Medulla [40] = assay: Drug uptake in anesthetized cynomolgus monkey brain medulla after 18.5 mins postinjection; assay type: ADME, organism-based, Macaca fascicularis; conditions: in vivo
[41] = Octanol-water partition coefficient, log P at pH 7.4 by shake-flask method; assay type: physicochemical
Medulla [42] = assay: Drug uptake in anesthetized cynomolgus monkey brain medulla after 215 mins postinjection; assay type: ADME, organism-based, Macaca fascicularis; conditions: in vivo
[43] = Drug uptake in anesthetized cynomolgus monkey brain cerebellum after 3.5 mins postinjection; assay type: ADME, organism-based, Macaca fascicularis; conditions: in vivo
[44] = Drug uptake in anesthetized cynomolgus monkey brain cerebellum after 225 mins postinjection; assay type: ADME, organism-based, Macaca fascicularis; conditions: in vivo, 3.75 h
[45] = Ratio of drug uptake in putamen to cerebellum in anesthetized cynomolgus monkey after 235 mins postinjection; assay type: ADME, organism-based, Macaca fascicularis; conditions: in vivo
[46] = Ratio of drug uptake in thalamus to cerebellum in anesthetized cynomolgus monkey after 95 mins postinjection; assay type: ADME, organism-based, Macaca fascicularis; conditions: in vivo
[47] = Ratio of drug uptake in thalamus to cerebellum in anesthetized cynomolgus monkey after 115 mins postinjection; assay type: ADME, organism-based, Macaca fascicularis; conditions: in vivo
[48] = Ratio of drug uptake in thalamus to cerebellum in anesthetized cynomolgus monkey after 195 mins postinjection; assay type: ADME, organism-based, Macaca fascicularis; conditions: in vivo, 3.25 h
Caudate [49] = assay: Drug uptake in anesthetized cynomolgus monkey brain caudate after 4.5 mins postinjection; assay type: ADME, organism-based, Macaca fascicularis, Caudate nucleus; conditions: in vivo, 0.075 h
Caudate [50] = assay: Drug uptake in anesthetized cynomolgus monkey brain caudate after 9.5 mins postinjection; assay type: ADME, organism-based, Macaca fascicularis, Caudate nucleus; conditions: in vivo
Caudate [51] = assay: Drug uptake in anesthetized cynomolgus monkey brain caudate after 27.5 mins postinjection; assay type: ADME, organism-based, Macaca fascicularis, Caudate nucleus; conditions: in vivo
Putamen [52] = assay: Drug uptake in anesthetized cynomolgus monkey brain putamen after 2.5 mins postinjection; assay type: ADME, organism-based, Macaca fascicularis; conditions: in vivo
[53] = Ratio of drug uptake in occipital lobe to cerebellum in anesthetized cynomolgus monkey after 0.5 mins postinjection; assay type: ADME, organism-based, Macaca fascicularis; conditions: in vivo
[54] = Ratio of drug uptake in occipital lobe to cerebellum in anesthetized cynomolgus monkey after 12.5 mins postinjection; assay type: ADME, organism-based, Macaca fascicularis; conditions: in vivo
Thalamus [55] = assay: Drug uptake in anesthetized cynomolgus monkey brain thalamus after 2.5 mins postinjection; assay type: ADME, organism-based, Macaca fascicularis; parameters: unit not given here; conditions: in vivo
Thalamus [56] = assay: Drug uptake in anesthetized cynomolgus monkey brain thalamus after 6.5 mins postinjection; assay type: ADME, organism-based, Macaca fascicularis; parameters: unit not given here; conditions: in vivo
Thalamus [57] = assay: Drug uptake in anesthetized cynomolgus monkey brain thalamus after 12.5 mins postinjection; assay type: ADME, organism-based, Macaca fascicularis; parameters: unit not given here; conditions: in vivo
Thalamus [58] = assay: Drug uptake in anesthetized cynomolgus monkey brain thalamus after 15.5 mins postinjection; assay type: ADME, organism-based, Macaca fascicularis; parameters: unit not given here; conditions: in vivo
Putamen [59] = assay: Drug uptake in anesthetized cynomolgus monkey brain putamen after 22.5 mins postinjection; assay type: ADME, organism-based, Macaca fascicularis; parameters: unit not given here; conditions: in vivo, 0.375 h
Putamen [60] = assay: Drug uptake in anesthetized cynomolgus monkey brain putamen after 65 mins postinjection; assay type: ADME, organism-based, Macaca fascicularis; parameters: unit not given here; conditions: in vivo
Putamen [61] = assay: Drug uptake in anesthetized cynomolgus monkey brain putamen after 105 mins postinjection; assay type: ADME, organism-based, Macaca fascicularis; parameters: unit not given here; conditions: in vivo, 1.75 h
Midbrain [62] = assay: Drug uptake in anesthetized cynomolgus monkey brain midbrain after 3.5 mins postinjection; assay type: ADME, organism-based, Macaca fascicularis; parameters: unit not given here; conditions: in vivo
Midbrain [63] = assay: Drug uptake in anesthetized cynomolgus monkey brain midbrain after 18.5 mins postinjection; assay type: ADME, organism-based, Macaca fascicularis; parameters: unit not given here; conditions: in vivo
Midbrain [64] = assay: Drug uptake in anesthetized cynomolgus monkey brain midbrain after 125 mins postinjection; assay type: ADME, organism-based, Macaca fascicularis; parameters: unit not given here; conditions: in vivo
[65] = Ratio of drug uptake in midbrain to cerebellum in anesthetized cynomolgus monkey after 22.5 mins postinjection; assay type: ADME, organism-based, Macaca fascicularis; conditions: in vivo, 0.375 h
[66] = Ratio of drug uptake in midbrain to cerebellum in anesthetized cynomolgus monkey after 95 mins postinjection; assay type: ADME, organism-based, Macaca fascicularis; conditions: in vivo

SMILES: O=C(OCC[18F])C1C2CCC(CC1c1cccc(/C=C\Br)c1)N2 (stereo unspecified)
- Ratio [1]: 1.4
- Ratio [2]: 1.4
- Ratio [3]: 1.2
- Ratio [4]: 1.7
- Drug uptake [5]: 0.36
- Drug uptake [6]: 2.17
- Drug uptake [7]: 3.14
- Drug uptake [8]: 3.49
- Drug uptake [9]: 2.5
- Drug uptake [10]: 2.01
- Drug uptake [11]: 0
- Drug uptake [12]: 2.78
- Drug uptake [13]: 2.8
- Drug uptake [14]: 2.46
- Drug uptake [15]: 2.19
- Ratio [16]: 1
- Ratio [17]: 1
- Ratio [18]: 1.1
- Drug uptake (Putamen [19]): 3.92
- Ratio [20]: 1.3
- Ratio [21]: 0.7
- Ratio [22]: 1.1
- Drug uptake (Midbrain [23]): 4.67
- Drug uptake (Midbrain [24]): 4.54
- Drug uptake (Pons [25]): 1.78
- Drug uptake (Pons [26]): 3.52
- Drug uptake (Pons [27]): 3.81
- Drug uptake (Pons [28]): 4.36
- Drug uptake (Pons [29]): 4.36
- Drug uptake (Midbrain [30]): 4.14
- Drug uptake (Midbrain [31]): 3.91
- Ratio [32]: 0.7
- Ratio [33]: 0.8
- Ratio [34]: 0.8
- Ratio [35]: 1.4
- Drug uptake (Pons [36]): 3.92
- Drug uptake (Pons [37]): 3.9
- Drug uptake (Medulla [38]): 0
- Drug uptake (Medulla [39]): 4.2
- Drug uptake (Medulla [40]): 4.39
- logD [41]: 1.4
- Drug uptake (Medulla [42]): 3.04
- Drug uptake [43]: 1.14
- Drug uptake [44]: 1.64
- Ratio [45]: 1.8
- Ratio [46]: 1.4
- Ratio [47]: 1.5
- Ratio [48]: 1.8
- Drug uptake (Caudate [49]): 1.12
- Drug uptake (Caudate [50]): 2.36
- Drug uptake (Caudate [51]): 3.3
- Drug uptake (Putamen [52]): 0.4
- Ratio [53]: 1.6
- Ratio [54]: 0.8
- Drug uptake (Thalamus [55]): 0.29
- Drug uptake (Thalamus [56]): 2.44
- Drug uptake (Thalamus [57]): 3
- Drug uptake (Thalamus [58]): 3.29
- Drug uptake (Putamen [59]): 4.33
- Drug uptake (Putamen [60]): 5.1
- Drug uptake (Putamen [61]): 4.82
- Drug uptake (Midbrain [62]): 0.95
- Drug uptake (Midbrain [63]): 4.16
- Drug uptake (Midbrain [64]): 4.73
- Ratio [65]: 1.1
- Ratio [66]: 1.6
